Test results as given in US20160339036A1, “Compound with Anti-Cancer Properties” (Velgene 3 Limited, priority 2013, published 2016).

Tests used:
[1] = tested on: tumour cell lines of Table 1 (CCRF-CEM, K562, MCF7, PANC1, B16, HT168M1, HCT116, PC3); assay: Proliferation assay (MTT) on tumour cell lines; assay type: cell-based, human; mouse (B16); details: 0.6, 2 and 6 μM, evaluated 24, 48 and 72 hours after treatment, One-Way ANOVA Post Hoc Scheffe Test, FIG. 4
Procedure: The first step was to examine the effect of T0504-7238 on the growth of tumour cells of the cell lines listed below in Table I. Our aim was to select the most therapy-sensitive cell lines as a preparation for the in vivo experiments.
Tumour cells were maintained in RPMI 1640 medium supplemented with 10% FBS (Sigma) and 1% penicillin/streptomycin solution (5,000 units penicillin and 5 mg streptomycin/ml) (Sigma) at 37° C. in a 5% CO2 atmosphere and used at confluence or at minimum 10^6 cells/ml density.
Single cell suspensions of different cell lines (Table 1) were put into 96-well microtiter plates for setting up 18-24 parallel samples per experimental group at 4×10^3 cell/well. The appropriate amount of T0504-7238 was suspended in a 3:1 DMSO: Solutol solution, which was then further diluted to the final concentration without the risk of precipitation. […]
Within each group samples were evaluated 24, 48 and 72 hours after treatment. […] After discarding of the culture medium plates were dried at room temperature, formazan crystals dissolved in dimethyl sulfoxide (100 μl/well) and the absorbance (OD) was measured at 570 nm using a microplate reader (Bio-Rad 550).
(§1) The results of our measurements were evaluated using One-Way ANOVA Post Hoc Scheffe Test.

HT168M1 human melanoma = assay: HT168M1 human melanoma, subcutaneous implantation in CB17/scid mice; assay type: in vivo, CB17/scid female mice
Source text: (§2) Both the environment of the experimental animals and the execution of the actual experiments followed the up to date legislation and ethical regulations of Hungary. […] The experimental animals were derived from the The Jackson Laboratory (610 Main Street Bar Harbor, Me. 04609, USA). All personnel involved with the in vivo experiments are qualified to perform the described experiments.
2,5×10^5 human melanoma (HT168M1) cells, from the in vitro cell line, were subcutaneously (s.c.) implanted into the dorsal region of adult CB17/scid female mice with congenital immunodeficiency under diethyl ether narcosis. The animals were randomised, divided into two groups (11 treated, 11 control) and labelled with individual ear-markings on the 10th post-implantation day. From that day onwards, the treated group was intraperitoneally (i.p) treated with T0504-7238 (2 mg/kg-3:1 DMSO:Solutol solution) once every second day. The control group was also treated with identical frequency to the treatment group i.p. injecting appropriately diluted 3:1 DMSO:Solutol solution. The animals were weighed weekly and individual changes were recorded using the ear-marking system. The tumour diameter was also individually recorded from the earliest palpable stage using a pair of compasses (caliper). Tumour volume was estimated usin the π/6×a×b^2 formula, where ‘a’ is the longer and ‘b’ is the shorter diameter. The experiment was terminated on the 41st post-implantation day—the animals were sacrificed using Nembutal. The evaluation was based on the weight of the primary tumour.
as §1

[2] = tested on: PC3 human prostate carcinoma; assay: PC3 human prostate tumour, implantation into prostate of CB17/scid mice; assay type: in vivo, CB17/scid male mice; details: 2 mg/kg i.p. once every second day from 13th post-implantation day, evaluated on 31st day
Source text: as §2
The abdominal wall of CB17/scid male mice was opened at the level of the prostate under Nembutal anaesthesia (75 mg/kg). A single cell suspension (2.15×10^5 cell/20 μl) of the PC3 human prostate carcinoma cell line was implanted into the prostate using micro syringe (Hamilton). The abdominal was closed with a single layer of surgical thread (3/0 Vicryl), the skin was closed with outwards turning wound edges using surgical clips (Michel Wound Clips, 7.5 mm). After the wound healing completed, the animals were randomised, divided into two groups (9 treated, 9 control) and labelled with individual ear-markings on the 13th post-implantation day. From that day onwards, the treated group was intraperitoneally (i.p) treated with T0504-7238 (2 mg/kg-3:1 DMSO:Solutol solution) once every second day. […] The animals were weighed weekly and individual changes were recorded using the ear-marking system. […]
as §1

O=C1C(Cl)=C(N2CCOCC2)C(=O)c2ccc(S(=O)(=O)N3CCOCC3)cc21 [T0504-7238]
growth of all tumour cell lines [1]: dose-dependently, significantly decreased the growth
detectable tumor entirely necrotic, share of cases in treated group (HT168M1 human melanoma; 2 mg/kg i.p. once every second day from 10th post-implantation day, evaluated on 41st day): 20%
weight of the tumor, treated vs control group (HT168M1 human melanoma; 2 mg/kg i.p. once every second day from 10th post-implantation day, evaluated on 41st day, FIG. 5): significantly lower (p=0.026)
average body weight of treated animals vs controls at the time of evaluation (HT168M1 human melanoma; 2 mg/kg i.p. once every second day, 41st post-implantation day): this difference was not significant
body weight, treated vs control animals at the time of evaluation ([2]; FIG. 6): no significant difference
average weight of the primary tumour, treated vs control group ([2]; FIG. 7): lower in the treated group
